The source of these data is publication PMC5915743, “Screening of a Novel Fragment Library with Functional Complexity against Mycobacterium tuberculosis InhA” (Chemmedchem, 2018).

The target in test [1] is T1, Mycobacterium tuberculosis InhA (Mycobacterium tuberculosis, UniProt P9WGR1). In words: STD 1H NMR. The test is classed as binding. Particulars: NADH-bound InhA; co-crystallised with ligands.
The target in test [2] is T1, Mycobacterium tuberculosis InhA. In words: InhA biochemical inhibition assay. Particulars: for IC50: read-out: InhA pIC50 ^[a][e] (% 500 μM) (converted); for InhA pIC50 ^[a][e] (% 500 μM): tested up to 1 mM. From the text: InhA biochemical inhibition assay on Mycobacterium tuberculosis InhA
For test [3] the target is unchanged. In words: surface plasmon resonance, equilibrium. The test is classed as binding. Particulars: read-out: SPR pK d ^[f] (converted). From the text: surface plasmon resonance, equilibrium on Mycobacterium tuberculosis InhA
A general note: In SPR one partner is held on a chip, and binding of the other changes the refractive index at the surface.

Where [4] appears, read: published lead, not marked as earlier data in table.

T1 sequence (P9WGR1 whole entry, looked up): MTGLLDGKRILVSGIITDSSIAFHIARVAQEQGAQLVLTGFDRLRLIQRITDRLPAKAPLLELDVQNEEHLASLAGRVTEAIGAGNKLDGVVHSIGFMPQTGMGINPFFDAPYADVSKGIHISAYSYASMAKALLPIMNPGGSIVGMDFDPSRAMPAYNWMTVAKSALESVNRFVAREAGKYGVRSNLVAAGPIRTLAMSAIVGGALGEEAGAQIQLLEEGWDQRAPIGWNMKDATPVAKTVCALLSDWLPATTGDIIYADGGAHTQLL

Take `NC(=O)C1=CN([C@@H]2O[C@H](COP(=O)(O)OP(=O)(O)OC[C@H]3O[C@@H](n4cnc5c(N)ncnc54)[C@H](O)[C@@H]3O)[C@@H](O)[C@H]2O)C=CC1` [NADH]: the “STD 1H NMR” value in test [1] is “NADH binding was also observed in the STD‐NMR spectra”.
Take `OCc1ccc(Cn2cccn2)cc1` [compound 4, 4]: the IC50 in test [2] was > 1000 µM.
On to `Cc1cc(N)n(Cc2ccccc2)n1` [compound 9, 9], for which the “InhA pIC50 ^[a][e] (% 500 μM)” value in test [2] is given as 3.4±0.23. Moreover, the Kd in test [3] was 501 µM.
Consider `CCOC(=O)[C@@H]1CCc2nc(C)sc2C1` [compound 22, 22], for which the IC50 in test [2] is 794 µM.
Take `O=C(CCc1cccnc1)NC1CCN(c2ncccn2)CC1` [compound 36, 36]: the IC50 in test [2] is > 1000 µM.
As to `O=C(NCc1cccnc1)NC1CCN(c2ncccn2)CC1` [compound 37, 37], in test [2], the “InhA pIC50 ^[a][e] (% 500 μM)” value stood at 4.1±0.06.
Take `Cc1cncc(CNC(=O)NC2CCCCC2)c1` [compound 38, 38]: in test [2], the IC50 was 100 µM. Moreover, the Kd in test [3] was 631 µM.
As to `Cc1cncc(CNC(=O)NC2CCN(c3ncccn3)CC2)c1` [compound 39, 39], in test [2], the “InhA pIC50 ^[a][e] (% 500 μM)” value stood at 5.0±0.14. The Kd in test [3] was 20 µM.
As for `Cc1cc(=O)c(-c2ccccc2)c(C)[nH]1` [compound 40, 40], the IC50 in test [2] is 15.8 µM. In test [3], the Kd was 25.1 µM.
With `Cc1cc(=O)c(C2CCN(c3ncccn3)CC2)c(C)[nH]1` [compound 41, 41], the IC50 in test [2] was 1 µM. The Kd in test [3] was 6.31 µM.
In the case of `O=c1[nH]c(CC2CCCCC2)cc(O)c1C1CCN(c2ncccn2)CC1` [compound 42, 42], the “InhA pIC50 ^[a][e] (% 500 μM)” value in test [2] is listed as 6.5±0.03.
For the compound `CC(C)Cc1cc(O)c(C2CCN(c3ncccn3)CC2)c(=O)[nH]1` [compound 43, 43], the IC50 in test [2] was 6.31 µM. Also, in test [3], the Kd was 200 µM.
With `Cc1cc(C)n(Cc2ccc(C(=O)NCc3ccc(F)cc3Cl)cc2)n1` [compound 44, 44], the “InhA pIC50 ^[a][e] (% 500 μM)” value in test [2] (setting [4]) stood at 6.9±0.07.
For `Cc1ccn(C(C)c2nnc(Nc3ccn(Cc4c(F)cccc4Cl)n3)s2)n1` (stereo not shown) [compound 45, 45], in test [2] (setting [4]), the “InhA pIC50 ^[a][e] (% 500 μM)” value amounted to 8.1±0.27. The Kd in test [3] is 0.01 µM.
Take `Cc1cc(N)n(Cc2ccc(C(=O)NCc3ccc(F)cc3Cl)cc2)n1` [compound 46, 46]: the “InhA pIC50 ^[a][e] (% 500 μM)” value in test [2] was 6.3±0.25. Besides, the Kd in test [3] was 0.501 µM.
The matching figures for `Cc1cc(N)n(Cc2nnc(Nc3ccn(Cc4c(F)cccc4Cl)n3)s2)n1` [compound 47, 47]: 7.3±0.20 and 0.0794 µM.
